According to patent publication US20250152659A1, “METHOD FOR PREVENTING OR TREATING PARKINSON'S DISEASE” (Suzhou Mingren Pharmaceutical Biotechnology Co., Ltd., priority 2022, published 2025):
Where a SMILES comes first, the peptide text is derived from it. [ ]: non-standard residue; d: D form. pS = N[C@@H](COP(=O)(O)O)C(=O)O

Key:
SH-SYSY cells = experiment: CCK8 cell viability assay, rotenone toxicity; assay type: cell-based, human; details: Rot 2.5 μM and JP1 25, 50, 100 μM, 24 and 48 hours, dose-dependent
Experimental: (§1) The example is to evaluate the protective effects of JP1 on the viability of mouse hippocampal neuronal cells HT-22 and human […] cells (SH-SYSY) induced by Rotenone (Rot) (CCK8 assay).
(§2) 1) Cell culture and treatment: The human neuroblastoma cell line SH-SYSY and the mouse hippocampal neuron cell line HT-22 were cultured in DMEM medium containing 100 µg/mL streptomycin, 100 U/mL penicillin, and 10% fetal bovine serum at 37° C. in a 5% CO2 environment. The cells were treated with Rotenone (2.5 μM) and JWA targeting peptide JP1 (0, 25, 50, 100 μM) for 24 and 48 hours, respectively. Model cells were tested for cell viability using CCK8 assay, expression levels of inflammasome 3 (NLRP3) and apoptosis related proteins (PARP1, Cleaved caspase1, 3, 9) using Western Blot, and mitochondrial membrane potential (JC1) and intracellular reactive oxygen species (ROS) levels using immunofluorescence staining.
(§3) Cells were inoculated in a 96-well plate at a density of 8000 cells/well for adherence for 24 hours. The culture medium was discarded and the cells were incubated for 24 and 48 hours with different concentrations of the drug. […] The absorbance value was read by an enzyme immunoassay detector at 450 nm. The cell viability (3 parallel samples in each group, and repeat 3 times) was calculated.

HT-22 cells = experiment: CCK8 cell viability assay, rotenone toxicity; assay type: cell-based, mouse; details: Rot 2.5 μM and JP1 25, 50, 100 μM, 24 and 48 hours, dose-dependent
Experimental: as §1, §2, §3

[1] = background statement; cited from earlier work

For `N=C(N)NCCC[C@H](NC(=O)[C@H](Cc1ccccc1)NC(=O)[C@H](CCCNC(=N)N)NC(=O)[C@H](CC(=O)O)NC(=O)[C@H](COP(=O)(O)O)NC(=O)CNC(=O)[C@@H]1CCCN1C(=O)[C@@H](N)Cc1ccccc1)C(=O)NCC(=O)N[C@@H](CC(=O)O)C(=O)O` [JP1] (H-FPG[pS]DRFRGD-OH), the “cell viability, protection against cytotoxicity of Rot” value (SH-SYSY cells) is given as “significant protective effect”, the “cell viability, protection against cytotoxicity of Rot” value (HT-22 cells) is given as “significant protective effect” and the “crossing the blood-brain barrier” value [1] is given as “can cross the blood-brain barrier”.
